Source: patent US20020035061A1, “COMPOSITIONS AND METHODS FOR TREATING INFECTIONS USING CATIONIC PEPTIDES ALONE OR IN COMBINATION WITH ANTIBIOTICS” (priority 1996, published 2002)
Where two headings read alike, the source gives them in different places.

Experiments:
Type in all cases: cell-based
[1] = tested on: E. faecium
[2] = tested on: S. aureus; details: for Peptide MIC values: agarose dilution
[3] = tested on: bacterial isolates; assay: microbe, parasite or virus in culture
[4] = S. aureus SA014 (also SA014 MRSA)
[5] = S. aureus SA025 (also SA025 MRSA)

Sequence: ILKKFPFFPFRRK [MBI 11A1CN]
- MIC ([1]; E. faecium EFM002): 1 µg/mL
- Peptide MIC values ([1]; agarose dilution): 128 µg/mL
- MIC ([2]; S. aureus SA005): 8 µg/mL
- Peptide MIC values ([2]; S. aureus ATCC 29213): 2 µg/mL
- Peptide MIC values ([2]; S. aureus MRSA9): 8 µg/mL
- Peptide MIC values ([2]; S. aureus MRSA13): >128 µg/mL
- Peptide MIC values ([2]; S. aureus MRSA17): 32 µg/mL
- Peptide MIC values ([2]; S. aureus SA206): 128 µg/mL
- Peptide MIC Alone ([3]; 3. Ciprofloxacin, S. aureus SA10): 128 µg/mL
- Peptide MIC Alone ([3]; 3. Ciprofloxacin, S. aureus SA11): >128 µg/mL
- Peptide MIC Alone ([3]; 4. Gentamicin, E. faecium EFM004): 32 µg/mL
- Peptide MIC Alone ([3]; 4. Gentamicin, S. aureus SA014 MRSA): 8 µg/mL
- Peptide MIC Alone ([3]; 4. Gentamicin, S. epidermidis SE074): 32 µg/mL
- Peptide MIC Alone ([3]; 4. Gentamicin, S. maltophilia SMA019): >128 µg/mL
- Peptide MIC Alone ([3]; 4. Gentamicin, S. maltophilia SMA020): >128 µg/mL
- Mupirocin MIC + Peptide ([3]; E. coli ECO1): 10 µg/mL
- Peptide MIC + Mupirocin ([3]; E. coli ECO1): 4 µg/mL
- Peptide MIC Alone ([3]; E. coli ECO1, Mupirocin section): 32 µg/mL
- Mupirocin MIC + Peptide ([3]; E. coli SBECO2): 30 µg/mL
- Peptide MIC + Mupirocin ([3]; E. coli SBECO2): 2 µg/mL
- Peptide MIC Alone ([3]; E. coli SBECO2, Mupirocin section): 128 µg/mL
- Peptide MIC + Vancomycin ([3]; E. faecalis EFS001): 0.125 µg/mL
- Peptide MIC Alone ([3]; E. faecalis EFS001): 4 µg/mL
- Vancomycin MIC + Peptide ([3]; E. faecalis EFS001): 0.5 µg/mL
- Peptide MIC + Vancomycin ([3]; E. faecalis EFS006): 0.25 µg/mL
- Peptide MIC Alone ([3]; E. faecalis EFS006): 128 µg/mL
- Vancomycin MIC + Peptide ([3]; E. faecalis EFS006): 4 µg/mL
- Peptide MIC + Vancomycin ([3]; E. faecalis EFS007): 0.5 µg/mL
- Peptide MIC Alone ([3]; E. faecalis EFS007): 128 µg/mL
- Vancomycin MIC + Peptide ([3]; E. faecalis EFS007): 2 µg/mL
- Peptide MIC + Vancomycin ([3]; E. faecalis EFS010): 2 µg/mL
- Peptide MIC Alone ([3]; E. faecalis EFS010): 128 µg/mL
- Vancomycin MIC + Peptide ([3]; E. faecalis EFS010): 4 µg/mL
- Peptide MIC + Vancomycin ([3]; E. faecalis EFS012): 8 µg/mL
- Peptide MIC Alone ([3]; E. faecalis EFS012): 64 µg/mL
- Vancomycin MIC + Peptide ([3]; E. faecalis EFS012): 32 µg/mL
- Peptide MIC + Vancomycin ([3]; E. faecalis EFS014): 2 µg/mL
- Peptide MIC Alone ([3]; E. faecalis EFS014): 4 µg/mL
- Vancomycin MIC + Peptide ([3]; E. faecalis EFS014): 1 µg/mL
- Gentamicin MIC + Peptide ([3]; E. faecium EFM004): 64 µg/mL
- Peptide MIC + Gentamicin ([3]; E. faecium EFM004): 1 µg/mL
- Peptide MIC + Vancomycin ([3]; E. faecium EFM004): 16 µg/mL
- Peptide MIC Alone ([3]; E. faecium EFM004): 32 µg/mL
- Vancomycin MIC + Peptide ([3]; E. faecium EFM004): 0.5 µg/mL
- Peptide MIC + Vancomycin ([3]; E. faecium EFM007): 16 µg/mL
- Peptide MIC Alone ([3]; E. faecium EFM007): 64 µg/mL
- Vancomycin MIC + Peptide ([3]; E. faecium EFM007): 4 µg/mL
- Peptide MIC + Vancomycin ([3]; E. faecium EFM009): 8 µg/mL
- Peptide MIC Alone ([3]; E. faecium EFM009): 64 µg/mL
- Vancomycin MIC + Peptide ([3]; E. faecium EFM009): 4 µg/mL
- Peptide MIC + Tobramycin ([3]; P. aeruginosa PA026): 0.125 µg/mL
- Tobramycin MIC + Peptide ([3]; P. aeruginosa PA026): 4 µg/mL
- Peptide MIC Alone ([3]; P. aeruginosa PA026, Tobramycin section): >128 µg/mL
- Peptide MIC + Tobramycin ([3]; P. aeruginosa PA032): 0.5 µg/mL
- Tobramycin MIC + Peptide ([3]; P. aeruginosa PA032): 8 µg/mL
- Peptide MIC Alone ([3]; P. aeruginosa PA032, Tobramycin section): >128 µg/mL
- Ciprofloxacin MIC + Peptide ([3]; S. aureus SA10): 16 µg/mL
- Peptide MIC + Ciprofloxacin ([3]; S. aureus SA10): 4 µg/mL
- Ciprofloxacin MIC + Peptide ([3]; S. aureus SA11): 32 µg/mL
- Peptide MIC + Ciprofloxacin ([3]; S. aureus SA11): 1 µg/mL
- Peptide MIC + Tobramycin [3, 4]: 8 µg/mL
- Tobramycin MIC + Peptide [3, 4]: 0.125 µg/mL
- Peptide MIC Alone ([3]; S. aureus SA014 (also SA014 MRSA), Tobramycin section): 16 µg/mL
- Gentamicin MIC + Peptide ([3]; S. aureus SA014 MRSA): 2 µg/mL
- Peptide MIC + Gentamicin ([3]; S. aureus SA014 MRSA): 4 µg/mL
- Peptide MIC + Tobramycin [3, 5]: 4 µg/mL
- Tobramycin MIC + Peptide [3, 5]: 0.125 µg/mL
- Peptide MIC Alone ([3]; S. aureus SA025 (also SA025 MRSA), Tobramycin section): 8 µg/mL
- Gentamicin MIC + Peptide ([3]; S. epidermidis SE074): 1 µg/mL
- Peptide MIC + Gentamicin ([3]; S. epidermidis SE074): 16 µg/mL
- Peptide MIC + Tobramycin ([3]; S. haemolyticus SHA001): 0.125 µg/mL
- Tobramycin MIC + Peptide ([3]; S. haemolyticus SHA001): 2 µg/mL
- Peptide MIC Alone ([3]; S. haemolyticus SHA001, Tobramycin section): 8 µg/mL
- Peptide MIC + Tobramycin ([3]; S. haemolyticus SHA005): 0.125 µg/mL
- Tobramycin MIC + Peptide ([3]; S. haemolyticus SHA005): 4 µg/mL
- Peptide MIC Alone ([3]; S. haemolyticus SHA005, Tobramycin section): 16 µg/mL
- Gentamicin MIC + Peptide ([3]; S. maltophilia SMA019): 2 µg/mL
- Peptide MIC + Gentamicin ([3]; S. maltophilia SMA019): 16 µg/mL
- Gentamicin MIC + Peptide ([3]; S. maltophilia SMA020): 2 µg/mL
- Peptide MIC + Gentamicin ([3]; S. maltophilia SMA020): 16 µg/mL
- Peptide MIC + Tobramycin ([3]; S. maltophilia SMA029): 32 µg/mL
- Tobramycin MIC + Peptide ([3]; S. maltophilia SMA029): 4 µg/mL
- Peptide MIC Alone ([3]; S. maltophilia SMA029, Tobramycin section): >128 µg/mL
- Peptide MIC + Tobramycin ([3]; S. maltophilia SMA030): 64 µg/mL
- Tobramycin MIC + Peptide ([3]; S. maltophilia SMA030): 2 µg/mL
- Peptide MIC Alone ([3]; S. maltophilia SMA030, Tobramycin section): >128 µg/mL
- FIC ([3]; peptide + Ciprofloxacin, S. aureus SA10): 0.53
- FIC ([3]; peptide + Ciprofloxacin, S. aureus SA11): 0.50
- FIC ([3]; peptide + Gentamicin, E. faecium EFM004): 0.28
- FIC ([3]; peptide + Gentamicin, S. aureus SA014 MRSA): 0.56
- FIC ([3]; peptide + Gentamicin, S. epidermidis SE074): 0.51
- FIC ([3]; peptide + Gentamicin, S. maltophilia SMA019): 0.31
- FIC ([3]; peptide + Gentamicin, S. maltophilia SMA020): 0.31
- FIC ([3]; peptide + Mupirocin, E. coli ECO1): 0.14
- FIC ([3]; peptide + Mupirocin, E. coli SBECO2): 0.05
- FIC ([3]; peptide + Tobramycin, P. aeruginosa PA026): 0.50
- FIC ([3]; peptide + Tobramycin, P. aeruginosa PA032): 0.50
- FIC ([3]; peptide + Tobramycin, S. aureus SA014 (also SA014 MRSA)): 0.50
- FIC ([3]; peptide + Tobramycin, S. aureus SA025 (also SA025 MRSA)): 0.50
- FIC ([3]; peptide + Tobramycin, S. haemolyticus SHA001): 0.52
- FIC ([3]; peptide + Tobramycin, S. haemolyticus SHA005): 0.51
- FIC ([3]; peptide + Tobramycin, S. maltophilia SMA029): 0.16
- FIC ([3]; peptide + Tobramycin, S. maltophilia SMA030): 0.27
- FIC ([3]; peptide + Vancomycin, E. faecalis EFS001): 0.53
- FIC ([3]; peptide + Vancomycin, E. faecalis EFS006): 0.50
- FIC ([3]; peptide + Vancomycin, E. faecalis EFS007): 0.50
- FIC ([3]; peptide + Vancomycin, E. faecalis EFS010): 0.27
- FIC ([3]; peptide + Vancomycin, E. faecalis EFS012): 0.25
- FIC ([3]; peptide + Vancomycin, E. faecalis EFS014): 0.51
- FIC ([3]; peptide + Vancomycin, E. faecium EFM004): 0.50
- FIC ([3]; peptide + Vancomycin, E. faecium EFM007): 0.28
- FIC ([3]; peptide + Vancomycin, E. faecium EFM009): 0.25
